# Measured values published in US7507739B2, “6-[(substituted)phenyl]triazolopyrimidines as anticancer agents” (Wyeth, priority 2003, dated 2009).
# Where two headings read alike, the source gives them in different places.
# How the values were obtained:
# [1] = test system: KB cells; test: MTS cytotoxicity test with KB cells; assay type: cell-based; conditions: Homo sapiens, read-out: IC50 KB
# Text: (§1) Human cancer cell lines, unless otherwise noted, are obtained from the American Type Culture Collection (Rockville, Md.). The following drug-sensitive parental cell lines, and their derived drug-resistant counterparts, are obtained from the originators as listed: (a) S1 (parental line from a subclone of human colon carcinoma line LS174T) and derived S1-M1-3.2 (herein called S1-M1) which expresses the MXR drug transporter protein, are provided by Dr. L. Greenberger, Wyeth Research (Rabindran, S. K., He, H., Singh, M., Brown, E., Collins, K. I., Annable, T., and Greenberger, L. M. Reversal of a novel multidrug resistance mechanism in human colon carcinoma cells by fumitremorgin C. Cancer Res., 58:5850-5858,1998); (b) parental HL-60 human promyelocytic leukemia line and derived HL-60/ADR, which expresses the MRP1 drug transporter protein, are provided by Dr. M. Center, University of Kansas (McGrath, T., and Center, M. S. Adriamycin resistance in HL60 cells in the absence of detectable P-glycoprotein. Biochem. Biophys. […] J. Biol. Chem., 261: 7762-7770,1986) via Dr. L. Greenberger, Wyeth Research.
# (§2) The assay, which is sold in kit form by Promega (Madison, Wis.; CellTiter 96 AQueous Non-Radioactive Cell Proliferation Assay), is based on the conversion by viable cells, but not by dead cells, of the tetrazolium salt, MTS (3-(4,5-dimethylthiazol-2-yl)-5-(3-carboxymethoxyphenyl)-2-(4-sulphophenyl)-2H-tetrazolium, inner salt), into a water-soluble colored formazan which is detected by spectrophotometry. Compounds are tested at nine concentrations, in order to determine IC50 values. For the test procedure, cells are harvested by trypsinization (or, in the case of non-adherent cells, by simple resuspension), washed, counted and distributed to wells of 96-well flat-bottom microtiter plates at 1000 cells per well in 200 μL of medium. In addition, one row of wells on a separate plate received cells as above (“time 0” plate). All plates are incubated at 37° in humidified 5% CO2 in air for about 24 hr.
# (§3) On day 2, compounds for test are diluted and added to wells. Compounds are dissolved in DMSO at 10 mg/mL. For each compound, nine serial 2-fold dilutions are prepared in DMSO. Ten μL of each dilution in DMSO is transferred to 100 μL of medium, mixed well, and then 5 μL of this dilution is transferred in quadruplicate to wells containing cells. […] Plates are returned to the incubator for three days. At the time of drug addition to the experimental plates, the MTS assay is run on the “time 0” plate. This produced the “time 0 MTS value” which is related to the number of viable cells per well at the time of drug addition.
# (§4) After three days of culture with test compounds (day 5 overall), the MTS assay is done on all wells of the experimental plates. The absorbance values of the quadruplicate sample wells are averaged and divided by the average of the “time 0” values. […] The nine values for each compound are plotted against concentration, and the concentration that produced a relative color yield half way between the maximum and minimum is taken as the IC50 value.
# (§5) The KB lines express different amounts of the P-glycoprotein (MDR1) membrane pump which produces resistance to the action of many cytotoxic compounds, including paclitaxel and vincristine. The parental KB line expresses no P-glycoprotein, KB-8-5 expresses moderate levels of the protein, and KB-V1 expresses very high levels.
# [2] = test system: KB-V1 cells; test: MTS cytotoxicity test with KB-V1 cells (very high P-glycoprotein); assay type: cell-based, human; conditions: for IC50: Homo sapiens, KB-V1 cells, MTS; for Ratio VI/KB: IC50 on KB VI cells/IC50 on KB cells; for recognition by P-glycoprotein: inferred from IC50 on KB-V1 compared to parental KB line
# Text: as §1, §2, §3, §4, §5
# [3] = test system: HL-60/ADR cells; test: MTS cytotoxicity test with HL-60/ADR cells (MRP1); assay type: cell-based, human; conditions: for IC50: Homo sapiens, HL60/ADR, read-out: IC50 HL-60/ADR; for Ratio: IC50 on HL-60/ADR cells/IC50 on HL-60 cells
# Text: as §1, §2, §3, §4
# HL-60/ADR cells overexpress the multidrug resistance protein MRP1 which mediates resistance to some chemotherapeutics (Gottesman, M. M., Fojo, T., and Bates, S. E. Multidrug resistance in cancer: role of ATP-dependent transporters. Nature Rev. Cancer, 2: 48-58, 2002). The IC50 values of representative examples of this invention, as well as reference compounds, on HL-60/ADR are compared to values on the sensitive parental HL-60 line.
# [4] = test system: pure tubulin; test: Tubulin polymerization test with pure tubulin without GTP; assay type: biochemical, bovine; conditions: no GTP
# In short: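 GTP-free polymerization using >99% pure bovine brain tubulin in PEM buffer (pH 6.9); centrifuged supernatant added to compounds. Duplicates at six 3-fold dilutions from 24.3 μM, read at 35°.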
# [5] = test system: tubulin heterodimer; test: Competitive binding test, [3H]vinblastine; parameters: species or system bovine; conditions: [3H]vinblastine 100 nM
# Protocol: (§6) Medium is RPMI-1640 with L-glutamine, supplemented with 10% heat-inactivated fetal calf serum, 100 units/ml penicillin, and 100 μg/ml streptomycin (Gibco, Grand Island, N.Y.). Microtubule-associated protein (MAP)-rich tubulin, containing about 70% tubulin and 30% MAPs (#ML113), and highly purified tubulin (>99% pure, #TL238), both from bovine brain, are obtained from Cytoskeleton, Inc., Denver, Colo. PEM buffer (80 mM piperazine-N,N′-bis[2-ethanesulfonic acid], pH 6.9, 1 mM ethylene glycol-bis(β-aminoethyl ether)-N,N,N′,N′-tetraacetic acid, 1 mM magnesium chloride) and guanosine 5′-triphosphate (GTP) are also obtained from Cytoskeleton. [3H]paclitaxel, specific activity 14.7 Ci/mmol, is purchased from Moravek Biochemicals (Brea, Calif.). [^3H]vinblastine, specific activity 9.60 Ci/mmol and MicroSpin G-50 columns are obtained from Amersham Biosciences (Piscataway, N.J.). […] Other reagents are obtained from Sigma (St. Louis, Mo.).
# (§7) The binding of examples of this invention to highly purified tubulin is studied by competitive inhibition methods. […] To study possible competition at the taxane site, on the other hand, polymerized tubulin (microtubules) is used because paclitaxel binds preferentially to microtubules.
# (§8) Highly purified tubulin is dissolved in PEM buffer without GTP and used at a final concentration of 1.0 to 1.3 mg/ml (10 to 13 μM). […] These solutions are incubated at 24° for 1 hr and then applied to MicroSpin G-50 columns which are centrifuged for 2 min at 3000 rpm in an Eppendorf 5415C microfuge. An aliquot of each column effluent (containing tubulin and bound radioligand) is mixed with scintillation fluid and counted in a liquid scintillation spectrometer. […] The ability of the competitor to inhibit the binding of the radioligand is expressed as a percentage of control binding in the absence of any competitor.
# [6] = test system: tubulin heterodimer; test: Competitive binding test, [3H]colchicine; parameters: species or system bovine; conditions: [3H]colchicine 50 nM
# Protocol: as §6, §7, §8
Structure (SMILES),"IC50 ([1]; KB cells, MTS)",IC50 [2],Ratio VI/KB [2],recognition by P-glycoprotein [2],IC50 [3],Ratio [3],"absorbance increase, polymerization of pure tubulin ([4]; 2.7 μM)","absorbance increase, polymerization of pure tubulin ([4]; 8.1 μM)",A340 at 0 min ([4]; 24.3 μM),A340 at 5 min ([4]; 24.3 μM),A340 at 10 min ([4]; 24.3 μM),A340 at 15 min ([4]; 24.3 μM),A340 at 20 min ([4]; 24.3 μM),"absorbance increase, polymerization of pure tubulin ([4]; 24.3 μM, first 5 min)","[3H]Vinblastine binding, percent of control without competitor, Mean [5]","[3H]Colchicine binding, percent of control without competitor, Mean [6]",IC50 ([1]; KB),"IC50 ([3]; HL-60/ADR cells, MTS)"
"C[C@H](Nc1c(-c2c(F)cc(OCCCN(C)C)cc2F)c(Cl)nc2ncnn12)C(F)(F)F.Cl [Example 1a, 5-chloro-6-{4-[3-(dimethylamino)propoxy]-2,6-difluorophenyl}-N-[(1S)-2,2,2-trifluoro-1-methylethyl][1,2,4]triazolo[1,5-a]pyrimidin-7-amine hydrogen chloride Salt]",28 nM,103 nM,3.7,show recognition by P-glycoprotein,63 nM,0.89,no effect,lower and less rapid increase,0,0.22,0.23,0.22,0.21,rapid increase in absorbance,12%,129%,,
"CNCCCOc1cc(F)c(-c2c(Cl)nc3ncnn3c2N[C@@H](C)C(F)(F)F)c(F)c1.Cl [Example 2a, 5-Chloro-6-{2,6-difluoro-4-[3-(methylamino)propoxy]phenyl}-N-[(1S)-2,2,2-trifluoro-1-methylethyl][1,2,4]triazolo[1,5-a]pyrimidin-7-amine hydrogen chloride]",,1120 nM,48,show recognition by P-glycoprotein,47 nM,1.1,no effect,lower and less rapid increase,0,0.25,0.24,0.23,0.22,rapid increase in absorbance,11%,122%,24 nM,
"OCCCOc1cc(F)c(-c2c(Cl)nc3ncnn3c2C2CCCCCC2)c(F)c1 [Example 30, 3-[4-(5-Chloro-7-cycloheptyl[1,2,4]triazolo[1,5-a]pyrimidin-6-yl)-3,5-difluorophenoxy]propan-1-ol]",72 nM,97 nM,,not recognized at all by P-glycoprotein,,0.94,,,0,0.02,0.01,0.01,0.01,,14%,112%,,52 nM
"C[C@H](Nc1c(-c2c(F)cc(OCCCO)cc2F)c(Cl)nc2ncnn12)C(F)(F)F [Example 20, 3-[4-(5-Chloro-7-{[(1S)-2,2,2-trifluoro-1-methylethyl]amino}[1,2,4]triazolo[1,5-a]pyrimidin-6-yl)-3,5-difluorophenoxy]propan-1-ol]",57 nM,73 nM,,not recognized at all by P-glycoprotein,,0.48,,,0,0.03,0.03,0.03,0.03,,19%,98%,,74 nM
